The numbers were not newly measured in patent publication US20120135069A1, “NANONIZED TESTOSTERON FORMULATIONS FOR IMPROVED BIOAVAILABILITY” (PHARMASOL GMBH, priority 2009, published 2012), which cites them from elsewhere.

SMILES strings stand for the structures.

The conditions of data set [1]: in vivo.
For data set [2] the following is noted: taken orally.

Consider `C[C@]12CCC(=O)C=C1CC[C@@H]1[C@@H]2CC[C@@]2(C)[C@H]1CC[C@]2(C)O` [methyltestosterone], for which the liver toxicity result in data set [1] is on record as “very liver toxic”.
In the case of `C[C@]12CC[C@H]3[C@@H](CCC4=CC(=O)CC[C@@]43C)[C@@H]1CC[C@@H]2O` [testosterone], the “fraction of the drug immediately metabolised by liver enzymes (first pass effect)” value in data set [2] is listed as “about 99%”.
